# ChEMBL document CHEMBL4257526, “Identification of an auxiliary druggable pocket in the DNA gyrase ATPase domain using fragment probes” (Medchemcomm, 2018)
# Target: DNA gyrase (Escherichia coli, UniProt P0AES4+P0AES6)
# Experiment: Inhibition of full length Escherichia coli DNA gyrase ATPase activity measured for 20 mins by lactate dehydrogenase assay
# Format: protein-complex assay
row,SMILES,IC50
1,Oc1ccc(Oc2cccc(C(F)(F)F)c2)cc1,240 µM
2,Oc1ccc(Oc2ccc(Cl)cc2)cc1,270 µM
3,CC(C)(c1ccccc1)c1ccc(O)cc1,390 µM
4,Oc1ccc(Oc2cccc(Cl)c2)cc1,320 µM

# Stronger by IC50, values ahead:
row,IC50,SMILES
1,180 µM,Oc1ccc(Oc2ccc(C(F)(F)F)cc2)cc1
2,120 µM,Oc1ccc(Oc2ccc(Cl)cc2Cl)cc1
3,120 µM,Cc1ccc(CCC(=O)O)cc1
4,100 µM,Oc1ccc(Oc2ccc(C(F)(F)F)cc2Cl)cc1
5,84 µM,Cc1cc(Oc2ccc(Cl)cc2Cl)ccc1O
